Like-named read-outs stand apart in the source and are kept apart here.
Key:
human OPRM1 (μ, MOR) [1] = biological target: T1, human OPRM1 (μ, MOR) (Homo sapiens, UniProt P35372); format: cell-based; conditions: for ΔRA of compound: relative activity from EC50 and Emax of β-arrestin vs cAMP, lower RA = more G-protein biased
T1 construct: host or cells: CHO-K1
Method: In certain embodiments, the ability of a compound to activate G-protein or β-arrestin is not an on/off switch for a given pathway, but rather a continuous function. To capture this, each compound is measured for activity in cell assays that are linked to β-arrestin recruitment and G-protein signaling. By comparing the activity between these two measures (accounting for both EC50 and maximal response reached, Emax) a relative activity (RA) value is determined.
In the case of MOR it is desirable to have high activation of the G-protein pathway while reducing activation of β-arrestin. In the case of the formula above, this means a lower RA.

human OPRM1 (μ, MOR) [2] = biological target: T1, human OPRM1 (μ, MOR); assay: cell-based; conditions: for Emax: OPRM1, read-out: β-Arrestin Emax; for EC50: PathHunter human OPRM1 Arrestin CHO-K1 cell line, read-out: β-Arrestin EC50
Method: The Discoverx PathHunter® β-Arrestin assay is used to measure β-arrestin-2 activity. The technology is based on Enzyme Fragment Complementation (EFC) with β-galactosidase (β-Gal) as the reporter. […] EA is fused to Q-arrestin-2, and ED is fused to the C-terminus of the GPCR of interest. When a ligand binds and the GPCR is activated, Q-arrestin-2 is recruited to the receptor resulting in an ED/EA complementation, restoring f-Gal activity, which is measured using chemiluminescence. For this assay, the PathHunter human OPRM1 (μ, MOR) Arrestin CHO-K1 cell line was used.

human OPRM1 (μ, MOR) [3] = biological target: T1, human OPRM1 (μ, MOR); assay: cell-based; conditions: for Emax: OPRM1, read-out: cAMP Emax; for EC50: PathHunter human OPRM1 Arrestin CHO-K1 cell line, read-out: cAMP EC50
Method: G-protein signaling was measured via second messenger cAMP modulation. Detection of cAMP modulation was accomplished in the PathHunter human OPRM1 (μ, MOR) Arrestin CHO-K1 cell line using the Dynamic2 cAMP Kit from Cisbio.

T1 sequence (P35372 whole entry): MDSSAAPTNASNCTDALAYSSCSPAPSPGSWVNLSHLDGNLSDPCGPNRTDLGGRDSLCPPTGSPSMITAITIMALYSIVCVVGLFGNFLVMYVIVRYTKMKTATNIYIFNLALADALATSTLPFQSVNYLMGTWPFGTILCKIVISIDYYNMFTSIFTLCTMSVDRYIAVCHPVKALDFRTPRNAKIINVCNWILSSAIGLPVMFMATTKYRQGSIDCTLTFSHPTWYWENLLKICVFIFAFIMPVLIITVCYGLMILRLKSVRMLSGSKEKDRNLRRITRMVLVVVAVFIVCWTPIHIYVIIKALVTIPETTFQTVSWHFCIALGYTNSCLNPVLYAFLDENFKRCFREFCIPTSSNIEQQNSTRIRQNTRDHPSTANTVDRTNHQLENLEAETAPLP

**Q.** What does the source list for `COc1ccc(C(CNC(=O)N2CC[C@@H](c3ccccc3)C2)N(C)C)cc1` (stereo partly drawn) [Compound 42]?
**A.** Bias Factor (ΔRA of compound relative to ΔRA of DAMGO) × 10 (human OPRM1 (μ, MOR) [1]): <−14.83; ΔRA of compound (human OPRM1 (μ, MOR) [1]): <−2.96; Emax (human OPRM1 (μ, MOR) [2]): < 1%; EC50 (human OPRM1 (μ, MOR) [2]): > 100 µM; Emax (human OPRM1 (μ, MOR) [3]): 21.9%; EC50 (human OPRM1 (μ, MOR) [3]): 7430 nM

**Q.** What does the source list for `COc1ccc(C(CNC(=O)N2CC[C@H](c3ccccc3)C2)N(C)C)cc1` (stereo partly drawn) [Compound 43]?
**A.** Bias Factor (ΔRA of compound relative to ΔRA of DAMGO) × 10 (human OPRM1 (μ, MOR) [1]): <−14.83; ΔRA of compound (human OPRM1 (μ, MOR) [1]): <−2.96; Emax (human OPRM1 (μ, MOR) [2]): < 1%; EC50 (human OPRM1 (μ, MOR) [2]): > 100 µM; Emax (human OPRM1 (μ, MOR) [3]): 54.2%; EC50 (human OPRM1 (μ, MOR) [3]): 1720 nM

**Q.** Which “Bias Factor (ΔRA of compound relative to ΔRA of DAMGO) × 10” value (human OPRM1 (μ, MOR) [1]) does the source give for `CN(C)C(CNC(=O)N(C)[C@@H]1CCCc2ccccc21)c1ccsc1` (stereo partly drawn) [Compound 45] here?
**A.** <−14.83

**Q.** What about the ΔRA of compound (human OPRM1 (μ, MOR) [1]) of the same compound?
**A.** <−2.96

**Q.** What about the Emax (human OPRM1 (μ, MOR) [2]) of the same compound?
**A.** 8.1%

**Q.** And the EC50 (human OPRM1 (μ, MOR) [2])?
**A.** > 100 µM

**Q.** What about the Emax (human OPRM1 (μ, MOR) [3]) of the same compound?
**A.** 101%

**Q.** What about the EC50 (human OPRM1 (μ, MOR) [3]) of the same compound?
**A.** 276 nM

**Q.** How did the “Bias Factor (ΔRA of compound relative to ΔRA of DAMGO) × 10” value (human OPRM1 (μ, MOR) [1]) turn out when `CN(C)C1(CNC(=O)N2Cc3ccc(F)cc3C2)CCCCC1` [Compound 46] was run?
**A.** −7.08

**Q.** And the ΔRA of compound (human OPRM1 (μ, MOR) [1])?
**A.** −2.19

**Q.** And the Emax (human OPRM1 (μ, MOR) [2])?
**A.** 13.6%

**Q.** And the EC50 (human OPRM1 (μ, MOR) [2])?
**A.** 10.1 µM

**Q.** And the Emax (human OPRM1 (μ, MOR) [3])?
**A.** 109%

**Q.** What about the EC50 (human OPRM1 (μ, MOR) [3]) of the same compound?
**A.** 522 nM

**Q.** `CN(C)C(CNC(=O)N1CCCc2ccc(O)cc21)c1ccsc1` (stereo not drawn) [Compound 49] was tested. Which “Bias Factor (ΔRA of compound relative to ΔRA of DAMGO) × 10” value (human OPRM1 (μ, MOR) [1]) did it give?
**A.** <−14.83

**Q.** And the ΔRA of compound (human OPRM1 (μ, MOR) [1])?
**A.** <−2.96

**Q.** What about the Emax (human OPRM1 (μ, MOR) [2]) of the same compound?
**A.** < 1%

**Q.** What about the EC50 (human OPRM1 (μ, MOR) [2]) of the same compound?
**A.** > 100 µM

**Q.** What about the Emax (human OPRM1 (μ, MOR) [3]) of the same compound?
**A.** 97%

**Q.** What about the EC50 (human OPRM1 (μ, MOR) [3]) of the same compound?
**A.** 998 nM

**Q.** `CN(C)C(CNC(=O)N[C@@H]1CCc2ccc(O)cc2C1)c1ccsc1` (stereo partly drawn) [Compound 50] was tested. Which “Bias Factor (ΔRA of compound relative to ΔRA of DAMGO) × 10” value (human OPRM1 (μ, MOR) [1]) did it give?
**A.** <−14.83

**Q.** And the ΔRA of compound (human OPRM1 (μ, MOR) [1])?
**A.** <−2.96

**Q.** And the Emax (human OPRM1 (μ, MOR) [2])?
**A.** < 1%

**Q.** And the EC50 (human OPRM1 (μ, MOR) [2])?
**A.** > 100 µM

**Q.** And the Emax (human OPRM1 (μ, MOR) [3])?
**A.** 48.3%

**Q.** And the EC50 (human OPRM1 (μ, MOR) [3])?
**A.** 36 nM

**Q.** With `CN(C)C(CNC(=O)N[C@H]1CCc2ccccc2C1)c1ccsc1` (stereo partly drawn) [Compound 51] as the compound, how does the “Bias Factor (ΔRA of compound relative to ΔRA of DAMGO) × 10” value (human OPRM1 (μ, MOR) [1]) read?
**A.** <−14.83

**Q.** What about the ΔRA of compound (human OPRM1 (μ, MOR) [1]) of the same compound?
**A.** <−2.96

**Q.** And the “β-Arrestin Emax” value (human OPRM1 (μ, MOR) [2])?
**A.** <1%

**Q.** What about the EC50 (human OPRM1 (μ, MOR) [2]) of the same compound?
**A.** > 100 µM

**Q.** What about the “cAMP Emax” value (human OPRM1 (μ, MOR) [3]) of the same compound?
**A.** 64.9%

**Q.** What about the EC50 (human OPRM1 (μ, MOR) [3]) of the same compound?
**A.** 29 nM

**Q.** Which “Bias Factor (ΔRA of compound relative to ΔRA of DAMGO) × 10” value (human OPRM1 (μ, MOR) [1]) does the source give for `CN(C)C(CNC(=O)N[C@H]1CCc2ccccc2C1)c1ccsc1` (stereo partly drawn) [Compound 52] here?
**A.** <−14.83

**Q.** What about the ΔRA of compound (human OPRM1 (μ, MOR) [1]) of the same compound?
**A.** <−2.96

**Q.** And the “β-Arrestin Emax” value (human OPRM1 (μ, MOR) [2])?
**A.** <1%

**Q.** What about the EC50 (human OPRM1 (μ, MOR) [2]) of the same compound?
**A.** > 100 µM

**Q.** And the “cAMP Emax” value (human OPRM1 (μ, MOR) [3])?
**A.** 12.2%

**Q.** What about the EC50 (human OPRM1 (μ, MOR) [3]) of the same compound?
**A.** 227 nM

**Q.** Which results are given for `CN(C)C(CNC(=O)NC1CCCc2c(O)cccc21)c1ccsc1` (stereo not drawn) [Compound 59]?
**A.** Bias Factor (ΔRA of compound relative to ΔRA of DAMGO) × 10 (human OPRM1 (μ, MOR) [1]): −1.95; ΔRA of compound (human OPRM1 (μ, MOR) [1]): −1.67; Emax (human OPRM1 (μ, MOR) [2]): 61%; EC50 (human OPRM1 (μ, MOR) [2]): 0.16 µM; Emax (human OPRM1 (μ, MOR) [3]): 108%; EC50 (human OPRM1 (μ, MOR) [3]): 6 nM

**Q.** `CN(C)C(CNC(=O)N[C@H]1CCc2ccc(O)cc2C1)c1ccsc1` (stereo partly drawn) [Compound 60] was tested. Which “Bias Factor (ΔRA of compound relative to ΔRA of DAMGO) × 10” value (human OPRM1 (μ, MOR) [1]) did it give?
**A.** <−14.83

**Q.** And the ΔRA of compound (human OPRM1 (μ, MOR) [1])?
**A.** <−2.96

**Q.** What about the Emax (human OPRM1 (μ, MOR) [2]) of the same compound?
**A.** < 1%

**Q.** What about the EC50 (human OPRM1 (μ, MOR) [2]) of the same compound?
**A.** > 100 µM

**Q.** And the Emax (human OPRM1 (μ, MOR) [3])?
**A.** 27.5%

**Q.** And the EC50 (human OPRM1 (μ, MOR) [3])?
**A.** 676 nM

**Q.** What does the source list for `CN(C)C1(CNC(=O)N2Cc3ccc(F)cc3C2)CCCC1` [Compound 63]?
**A.** Bias Factor (ΔRA of compound relative to ΔRA of DAMGO) × 10 (human OPRM1 (μ, MOR) [1]): <−14.83; ΔRA of compound (human OPRM1 (μ, MOR) [1]): <−2.96; Emax (human OPRM1 (μ, MOR) [2]): < 1%; EC50 (human OPRM1 (μ, MOR) [2]): > 100 µM; Emax (human OPRM1 (μ, MOR) [3]): 87.9%; EC50 (human OPRM1 (μ, MOR) [3]): 2510 nM

**Q.** `CN(C)C1(CNC(=O)N2Cc3ccccc3C2)CCCC1` [Compound 64] was tested. Which “Bias Factor (ΔRA of compound relative to ΔRA of DAMGO) × 10” value (human OPRM1 (μ, MOR) [1]) did it give?
**A.** <−14.83

**Q.** And the ΔRA of compound (human OPRM1 (μ, MOR) [1])?
**A.** <−2.96

**Q.** And the Emax (human OPRM1 (μ, MOR) [2])?
**A.** < 1%

**Q.** And the EC50 (human OPRM1 (μ, MOR) [2])?
**A.** > 100 µM

**Q.** And the Emax (human OPRM1 (μ, MOR) [3])?
**A.** 88.7%

**Q.** What about the EC50 (human OPRM1 (μ, MOR) [3]) of the same compound?
**A.** 2150 nM

**Q.** Which results are given for `CN(C)C(CNC(=O)N1CCCc2ccccc21)c1ccccc1` (stereo not drawn) [Compound 69a]?
**A.** Bias Factor (ΔRA of compound relative to ΔRA of DAMGO) × 10 (human OPRM1 (μ, MOR) [1]): −8.38; ΔRA of compound (human OPRM1 (μ, MOR) [1]): −2.32; Emax (human OPRM1 (μ, MOR) [2]): 8%; EC50 (human OPRM1 (μ, MOR) [2]): 8.56 µM; Emax (human OPRM1 (μ, MOR) [3]): 110%; EC50 (human OPRM1 (μ, MOR) [3]): 563 nM

**Q.** Which “Bias Factor (ΔRA of compound relative to ΔRA of DAMGO) × 10” value (human OPRM1 (μ, MOR) [1]) does the source give for `CN(C)C(CNC(=O)N1CCCc2cc(F)ccc21)c1ccccc1` (stereo not drawn) [Compound 70a] here?
**A.** −10.82

**Q.** And the ΔRA of compound (human OPRM1 (μ, MOR) [1])?
**A.** −2.56

**Q.** What about the Emax (human OPRM1 (μ, MOR) [2]) of the same compound?
**A.** 5.3%

**Q.** And the EC50 (human OPRM1 (μ, MOR) [2])?
**A.** 11 µM

**Q.** What about the Emax (human OPRM1 (μ, MOR) [3]) of the same compound?
**A.** 90.3%

**Q.** What about the EC50 (human OPRM1 (μ, MOR) [3]) of the same compound?
**A.** 512 nM
